Test results published in US11512053B2, “Arginine methyltransferase inhibitors and uses thereof” (priority 2013, dated 2022).
Counter-ions that a name gives are not always drawn. Like-named read-outs stand apart in the source and are kept apart here.

Experiments:
[1] = molecular target: full-length human PRMT8 isoform 1 (Homo sapiens, UniProt Q9NR22); assay: PRMT8 Biochemical Assay (3H-SAM Flashplate, peptide substrate); settings: read-out: Biochemical IC50 PRMT8
In short: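 Scintillation Flashplate capture of biotinylated histone H4 (31-45) peptide (150 nM) methylated by 1.5 nM PRMT8 using 3H-SAM (50 nM) with unlabelled SAM (550 nM); enzyme and compound preincubated 30 min, room temperature, in Bicine pH 7.6 buffer with TCEP, BSG, Tween 20 and 2% DMSO. Stopped with excess cold SAM (400 uM); IC50 from % inhibition, min control 1 mM SAH.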

[2] = test system: mono-methyl arginine in RKO cells; assay: RKO Methylation Assay, In Cell Western (ICW) for detection of mono-methyl arginine and DNA content; assay type: cell-based
In short: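 RKO cells were treated with compound for 72 hours at 37 °C, methanol-fixed and stained overnight at 4 °C with anti-mono-methyl arginine (1:200), with DRAQ5 for DNA. Odyssey 800/700 nm intensity ratio was normalized to DMSO and 20 μM reference-compound controls. EC30 from triplicate nine-point curves.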

[3] = single experiment or average of multiple experiments
[4] = Homo sapiens, RKO, 72 h, RKO cells, 72 hours compound incubation, mono-methyl arginine signal normalised to DNA content (DRAQ5), percent activation vs 20 μM reference compound, read-out: In Cell Western EC30
[5] = Homo sapiens, RKO, 72 h, RKO cells, 72 hours incubation, mono-methyl arginine signal normalised to DNA content, single experiment or average of multiple experiments, read-out: In Cell Western EC30
[6] = Homo sapiens, RKO, 72 h, read-out: In Cell Western EC30, RKO cells, 72 hours compound incubation, mono-methyl arginine signal normalised to DNA content (DRAQ5), percent activation vs 20 μM reference compound
[7] = Homo sapiens, RKO, 72 h, read-out: In Cell Western EC30, RKO cells, 72 hours incubation, mono-methyl arginine signal normalised to DNA content, single experiment or average of multiple experiments

Chain of full-length human PRMT8 isoform 1 (Q9NR22 whole entry, canonical isoform): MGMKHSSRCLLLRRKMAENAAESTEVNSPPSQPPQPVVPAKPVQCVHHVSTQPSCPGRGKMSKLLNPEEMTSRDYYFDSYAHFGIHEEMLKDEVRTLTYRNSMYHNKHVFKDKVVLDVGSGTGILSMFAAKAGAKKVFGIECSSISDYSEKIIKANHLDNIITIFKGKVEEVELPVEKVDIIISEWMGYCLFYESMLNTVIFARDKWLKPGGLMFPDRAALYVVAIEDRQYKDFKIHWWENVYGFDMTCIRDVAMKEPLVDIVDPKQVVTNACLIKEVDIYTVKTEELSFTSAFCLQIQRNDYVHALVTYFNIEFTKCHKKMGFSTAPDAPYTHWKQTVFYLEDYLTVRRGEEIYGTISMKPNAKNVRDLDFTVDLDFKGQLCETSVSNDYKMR

Structure (SMILES) | IC50 [1] [nM] | IC50 [1, 3] [nM] | EC30 [2, 4] [nM] | EC30 [2, 5] [nM] | EC30 [2, 6] [nM] | EC30 [2, 7] [nM] | In Cell Western EC30 ([2]; RKO cells, 72 hours compound incubation, mono-methyl arginine signal normalised to DNA content (DRAQ5), percent activation vs 20 μM reference compound) | EC30 ([2]; RKO cells, 72 hours incubation, mono-methyl arginine signal normalised to DNA content, single experiment or average of multiple experiments, read-out: In Cell Western EC30) [nM]
CNCCN(C)Cc1c[nH]nc1[C@H]1CC[C@@H](C(=O)NCCOc2ccccc2)CC1 [Compound 212] | < 100 | 8.28 | < 3000 | 433 | – | – | – | –
CNCCN(C)Cc1c[nH]nc1[C@H]1CC[C@H](C(=O)N(CCCOC)CCC(C)C)CC1 [Compound 213] | 101 to 1000 | 165 | < 3000 | 433 | – | – | – | –
CNCCN(C)Cc1c[nH]nc1[C@H]1CC[C@@H](C(=O)N(CCCOC)CCC(C)C)CC1 [Compound 214] | < 100 | 27.4 | < 3000 | 95.8 | – | – | – | –
CNCCN(C)Cc1c[nH]nc1[C@H]1CC[C@@H](C(=O)N(C)CC(C)C)CC1 [Compound 215] | < 100 | 23 | < 3000 | 164 | – | – | – | –
CNCCN(C)Cc1c[nH]nc1C1CCC(F)(F)CC1 [Compound 216] | < 100 | 17.8 | < 3000 | 111 | – | – | – | –
CNCCN(C)Cc1c[nH]nc1[C@H]1CC[C@@H](O)CC1 [Compound 217, 4-[4-([methyl[2-(methylamino)ethyl]amino]methyl)-1H-pyrazol-3-yl]cyclohexan-1-ol trifluoroacetate] | < 100 | 59.5 | – | – | < 3000 | 111 | – | –
CNCCN(C)Cc1c[nH]nc1[C@H]1CC[C@H](N(CCOc2ccccc2)C(=O)CCOC)CC1 [Compound 219] | < 100 | 15 | < 3000 | 294 | – | – | – | –
CCC(=O)N(CCOc1ccccc1)[C@H]1CC[C@@H](c2n[nH]cc2CN(C)CCNC)CC1 [Compound 220] | < 100 | 12.9 | < 3000 | 219 | – | – | – | –
CCC(=O)N(CCOc1ccccc1)[C@H]1CC[C@H](c2n[nH]cc2CN(C)CCNC)CC1 [Compound 221] | < 100 | 15.4 | < 3000 | 490 | – | – | – | –
CNCCN(C)Cc1c[nH]nc1[C@H]1CC[C@@H](N(CCOc2ccccc2)C(=O)CC(C)C)CC1 [Compound 222] | < 100 | 90 | < 3000 | 2610 | – | – | – | –
CNCCN(C)Cc1c[nH]nc1[C@H]1CC[C@H](N(CCOc2ccccc2)C(=O)CC(C)C)CC1 [Compound 223] | < 100 | 8.65 | < 3000 | 275 | – | – | – | –
CCN(C(=O)CCOc1ccccc1)[C@H]1CC[C@@H](c2n[nH]cc2CN(C)CCNC)CC1 [Compound 224] | < 100 | 10.2 | < 3000 | 84.7 | – | – | – | –
CCN(C(=O)CCOc1ccccc1)[C@H]1CC[C@H](c2n[nH]cc2CN(C)CCNC)CC1 [Compound 225] | < 100 | 13.9 | < 3000 | 649 | – | – | – | –
CNCCN(C)Cc1c[nH]nc1[C@H]1CC[C@H](C(=O)N(C)CC(C)C)CC1 [Compound 226] | < 100 | 57.6 | < 3000 | 1530 | – | – | – | –
CNCCN(C)Cc1c[nH]nc1[C@H]1CC[C@H](O)CC1 [Compound 227, 4-[4-([methyl[2-(methylamino)ethyl]amino]methyl)-1H-pyrazol-3-yl]cyclohexan-1-ol trifluoroacetate] | < 100 | 35.8 | – | – | < 3000 | 1530 | – | –
CNCCN(C)Cc1c[nH]nc1[C@H]1CC[C@H](N(CCOc2ccccc2)C(=O)CCCOC)CC1 [Compound 229] | < 100 | 16 | < 3000 | 689 | – | – | – | –
CNCCN(C)Cc1c[nH]nc1[C@H]1CC[C@H](N(CCOC)C(=O)CCOc2ccccc2)CC1 [Compound 230] | < 100 | 25.7 | < 3000 | 1320 | – | – | – | –
CNCCN(C)Cc1c[nH]nc1[C@H]1CC[C@@H](N(CC(C)C)C(=O)CCOc2ccccc2)CC1 [Compound 231] | < 100 | 9.32 | < 3000 | 96.7 | – | – | – | –
CNCCN(C)Cc1c[nH]nc1[C@H]1CC[C@H](N(CC(C)C)C(=O)CCOc2ccccc2)CC1 [Compound 232] | < 100 | 21 | < 3000 | 957 | – | – | – | –
CNCCN(C)Cc1c[nH]nc1[C@H]1CC[C@@H](N(CC(C)C)C(=O)CCOC)CC1 [Compound 233] | < 100 | 42.7 | < 3000 | 1060 | – | – | – | –
CNCCN(C)Cc1c[nH]nc1[C@H]1CC[C@H](N(CC(C)C)C(=O)CCOC)CC1 [Compound 234] | < 100 | 42.8 | < 3000 | 1060 | – | – | – | –

Structure (SMILES) | IC50 [1] [nM] | IC50 [1, 3] [nM] | EC30 [2, 4] [nM] | EC30 [2, 5] [nM] | EC30 [2, 6] [nM] | EC30 [2, 7] [nM] | In Cell Western EC30 ([2]; RKO cells, 72 hours compound incubation, mono-methyl arginine signal normalised to DNA content (DRAQ5), percent activation vs 20 μM reference compound) | EC30 ([2]; RKO cells, 72 hours incubation, mono-methyl arginine signal normalised to DNA content, single experiment or average of multiple experiments, read-out: In Cell Western EC30) [nM]
CNCCN(C)Cc1c[nH]nc1[C@H]1CC[C@@H](N(CCC(C)C)C(=O)CCOC)CC1 [Compound 235] | < 100 | 44 | < 3000 | 813 | – | – | – | –
CNCCN(C)Cc1c[nH]nc1[C@H]1CC[C@H](N(CCC(C)C)C(=O)CCOC)CC1 [Compound 236] | < 100 | 57.8 | < 3000 | 813 | – | – | – | –
CNCCN(C)Cc1c[nH]nc1[C@H]1CC[C@@H](N(CCC(C)C)C(=O)CCCOC)CC1 [Compound 237] | < 100 | 83.3 | < 3000 | 1440 | – | – | – | –
CNCCN(C)Cc1c[nH]nc1[C@H]1CC[C@H](N(CCC(C)C)C(=O)CCCOC)CC1 [Compound 238] | < 100 | 80.1 | < 3000 | 2150 | – | – | – | –
CCN(C(=O)CC(C)C)[C@H]1CC[C@H](c2n[nH]cc2CN(C)CCNC)CC1 [Compound 239] | < 100 | 13.2 | < 3000 | 2150 | – | – | – | –
CCN(C(=O)CC(C)C)[C@H]1CC[C@@H](c2n[nH]cc2CN(C)CCNC)CC1 [Compound 240] | < 100 | 10.9 | < 3000 | 1180 | – | – | – | –
CNCCN(C)Cc1c[nH]nc1[C@H]1CC[C@H](N(CCCOC)C(=O)CC(C)C)CC1 [Compound 241] | < 100 | 48.9 | < 3000 | 1180 | – | – | – | –
CNCCN(C)Cc1c[nH]nc1[C@H]1CC[C@@H](N(CCCOC)C(=O)CCC(C)C)CC1 [Compound 244] | 101 to 1000 | 113 | < 3000 | 2530 | – | – | – | –
CNCCN(C)Cc1c[nH]nc1[C@H]1CC[C@@H](N(CCCOC)C(=O)CCOc2ccccc2)CC1 [Compound 246] | < 100 | 23.8 | < 3000 | 79.9 | – | – | – | –
CNCCN(C)Cc1c[nH]nc1[C@H]1CC[C@H](N(CCCOC)C(=O)CCOc2ccccc2)CC1 [Compound 247] | < 100 | 16.4 | < 3000 | 698 | – | – | – | –
CNCCN(C)Cc1c[nH]nc1[C@H]1CC[C@H](N(CC(C)C)C(=O)CCCOC)CC1 [Compound 248] | < 100 | 28.2 | < 3000 | 1310 | – | – | – | –
CNCCN(C)Cc1c[nH]nc1[C@H]1CC[C@H](N(CC(C)C)C(=O)CCCOC)CC1 [Compound 249] | < 100 | 84.5 | – | – | – | – | A (“A” indicates an EC30 ≤ 3.00 μM) | 658.5
CCN(C(=O)CCC(C)C)[C@H]1CC[C@@H](c2n[nH]cc2CN(C)CCNC)CC1 [Compound 251] | < 100 | 20.7 | < 3000 | 1450 | – | – | – | –
CNCCN(C)Cc1c[nH]nc1[C@H]1CC[C@H](N(CCOC)C(=O)CC(C)C)CC1 [Compound 252] | < 100 | 51.5 | < 3000 | 267 | – | – | – | –
CNCCN(C)Cc1c[nH]nc1[C@H]1CC[C@]2(CCOC2(C)C)CC1 [Compound 253] | < 100 | 11.7 | < 3000 | 56.6 | – | – | – | –
CNCCN(C)Cc1c[nH]nc1[C@H]1CC[C@H](N(CCOC)C(=O)CCC(C)C)CC1 [Compound 254] | < 100 | 44 | < 3000 | 1340 | – | – | – | –
CNCCN(C)Cc1c[nH]nc1C1CCC(C)(C)[C@@H](C(=O)OC)C1 (some centres unmarked) [Compound 255] | < 100 | 24.5 | < 3000 | 214 | – | – | – | –
CNCCN(C)Cc1c[nH]nc1C1CCC(C)(C)[C@H](C(=O)OC)C1 (some centres unmarked) [Compound 256] | < 100 | 44 | < 3000 | 316 | – | – | – | –
CNCCN(C)Cc1cnn(C)c1[C@H]1CC[C@]2(CC1)CC(C)(C)CO2 [Compound 257] | < 100 | 31 | < 3000 | 13.2 | – | – | – | –
CNCCN(C)Cc1c[nH]nc1[C@H]1CC[C@H](C(=O)N(C)CCOc2ccccc2)CC1 [Compound 258] | < 100 | 10.8 | < 3000 | 303 | – | – | – | –
